Our source for the IC50 values is ChEMBL document CHEMBL5604063, “ASAP - DENV-2 NS2B-NS3 protease fluorescence dose response” (2024).

Values joined by “and” are separate entries in the source; they are usually repeats but may differ in a detail not shown here. Equal entries are not always repeated. Some results are limits rather than exact numbers.

For assay [1], the target named is T1, Genome polyprotein (dengue virus type 2, UniProt P29990). Format: functional, Thailand/16681/1984.
Assay [2] deals with T1, Genome polyprotein. In kind it is functional, Thailand/16681/1984. The source holds these as a separate data set.

T1 sequence (P29990 1346-1475 limits assumed): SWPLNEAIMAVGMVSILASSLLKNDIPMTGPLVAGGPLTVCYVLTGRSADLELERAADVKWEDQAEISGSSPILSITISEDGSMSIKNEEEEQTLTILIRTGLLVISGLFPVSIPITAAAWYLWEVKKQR
T1 sequence (P29990 1476-2093 limits assumed): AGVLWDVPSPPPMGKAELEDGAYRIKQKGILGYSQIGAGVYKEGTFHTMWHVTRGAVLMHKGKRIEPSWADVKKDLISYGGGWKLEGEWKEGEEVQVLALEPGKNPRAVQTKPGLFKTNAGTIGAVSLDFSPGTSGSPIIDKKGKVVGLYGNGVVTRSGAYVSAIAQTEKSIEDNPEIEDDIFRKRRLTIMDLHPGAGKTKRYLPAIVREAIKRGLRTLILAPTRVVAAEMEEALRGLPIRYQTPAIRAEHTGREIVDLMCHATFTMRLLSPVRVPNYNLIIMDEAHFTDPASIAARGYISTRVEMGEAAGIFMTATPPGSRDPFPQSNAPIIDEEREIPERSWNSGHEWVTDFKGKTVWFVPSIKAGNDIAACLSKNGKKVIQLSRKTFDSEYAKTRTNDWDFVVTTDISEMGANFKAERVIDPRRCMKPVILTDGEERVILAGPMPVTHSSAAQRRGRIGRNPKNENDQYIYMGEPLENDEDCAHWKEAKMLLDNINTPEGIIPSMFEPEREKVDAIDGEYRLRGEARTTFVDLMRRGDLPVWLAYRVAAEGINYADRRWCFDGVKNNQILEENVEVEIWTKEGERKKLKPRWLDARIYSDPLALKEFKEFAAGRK

As for `Clc1ccc2[nH]cc(Cc3ccc(-c4nn[nH]n4)cc3)c2c1`, the 50% inhibitory concentration (IC50) was 58.7 µM against Genome polyprotein [1] and 16.4 µM on Genome polyprotein [2].
Take `Cc1[nH]c2ccccc2c1[C@H]1CCN(C(=O)Nc2ccc3c(c2)CNC3)C1`: the IC50 was > 99.5 µM on Genome polyprotein [1] and > 100 µM against Genome polyprotein [2].
In the same order, the values of `O=C(O)Cc1c[nH]c2cc(-c3cc(Cl)cc(NC(=O)OCc4ccccc4)c3)ccc12` are 13.3 µM and 9.67 µM.
For `Brc1csc(CNCCc2nnc[nH]2)c1`, the 50% inhibitory concentration (IC50) against Genome polyprotein [1] was > 99.5 µM; on Genome polyprotein [2], > 100 µM.
Take `N#Cc1cc(NC(=O)OCc2ccccc2)cc(C(=O)Nc2cccc(CN)c2)c1`: the IC50 against Genome polyprotein [1] was > 99.5 µM; on Genome polyprotein [2], > 100 µM.
On the same counts, the results for `Cc1ncc(COc2ccc([C@@H](NC(=O)OCc3ccccc3)C(=O)Nc3cccc(CN)c3)cc2)o1` are > 99.5 µM and > 100 µM.
On to `NCCCCc1ccc(NC(=O)c2cc(Cl)cc(NC(=O)OCc3ccccc3)c2)cc1`, for which the half-inhibitory concentration (IC50) was 11.8 µM and 19.5 µM against Genome polyprotein [1]; 33.2 µM against Genome polyprotein [2].
On to `Cn1nc(CNc2cc([C@H]3CCOC3)ccn2)cc1C1CC1`, for which the IC50 on Genome polyprotein [1] is > 99.5 µM; at Genome polyprotein [2] it was > 100 µM.
In the same order, the values of `CCOC(=O)[C@H]1[C@H](c2cccc(CN)c2)[C@H]1c1cc(Cl)cc(NC(=O)OCc2ccccc2)c1` are > 99.5 µM and > 100 µM.
On the same counts, the results for `COC1CCN(C(=O)c2ccnc(NC(=O)c3cc(C4CC4)n(C)c3C)c2)CC1` are > 99.5 µM and > 100 µM.
In the same order, the values of `CC(C)c1ncc(OC2CCC2)c(C(=O)Nc2cccc(CN)c2)n1` are > 99.5 µM and > 100 µM.
For the compound `O=C1Cc2c(cccc2C(=O)N[C@H]2CCC[C@@H](C(=O)NC3CC3)C2)N1`, the IC50 at Genome polyprotein [1] was > 99.5 µM; on Genome polyprotein [2], > 100 µM.
In the same order, the values of `Cc1cc(NC(=O)c2cc(C3CC3)n(C)c2C)ccc1OC1CCOCC1` are > 99.5 µM and > 100 µM.
In the same order, the values of `CCn1c(=O)c(N2CC[C@H](CO)C2)nc2ccc(C(=O)NCc3ccccc3)cc21` are 95.1 µM and > 100 µM.
On the same counts, the results for `CC(C)(C)c1noc2nc(C(=O)Nc3ccc4c(c3)CNC4)ccc12` are > 99.5 µM and > 100 µM.
As for `Cc1ocnc1COc1cccc([C@H](NC(=O)OCc2ccccc2)C(=O)Nc2cccc(CN)c2)c1`, the IC50 at Genome polyprotein [1] is > 99.5 µM; against Genome polyprotein [2], > 100 µM.
As to `O=C(Nc1ccc2c(c1)CN(CC(F)F)C2)c1cc(Cl)cc2[nH]ncc12`, the figures for the IC50 at Genome polyprotein [1] and against Genome polyprotein [2] were 58.7 µM and > 100 µM, respectively.
Consider `O=C(O)c1cc(Cl)c(F)cc1NS(=O)(=O)c1ccc(Oc2ccccc2Cl)cc1`, for which the IC50 against Genome polyprotein [1] was 7.82 µM; on Genome polyprotein [2], 11.2 µM and 8.35 µM and 16.5 µM and 10.2 µM and 9.1 µM and 8.36 µM and 12.3 µM and 5.27 µM and 5.73 µM.
Turning to `NCc1cccc(NC(=O)[C@@H](NC(=O)OCc2ccccc2)c2ccc(OC[C@H]3CCS(=O)(=O)C3)cc2)c1`, the IC50 was > 99.5 µM against Genome polyprotein [1] and > 100 µM against Genome polyprotein [2].
In the same order, the values of `N#Cc1cc(CN)cc([C@H]2C[C@@H]2c2cc(Cl)cc(NC(=O)OCc3ccccc3)c2)c1` are > 99.5 µM and > 100 µM.
On the same counts, the results for `Cc1cc(C(F)(F)F)cc(C(=O)Nc2ccc3c(c2)CNC3)n1` are 48.6 µM and > 100 µM.
In the same order, the values of `NCc1cccc(NC(=O)[C@@H](NC(=O)OCc2ccccc2)C2CCN(S(=O)(=O)[C@H]3CCOC3)CC2)c1` are > 99.5 µM and > 100 µM.
As to `NCc1cccc(NC(=O)[C@H](NC(=O)OCc2ccccc2)C2CCN(C3CCCC3)CC2)c1`, the IC50 at Genome polyprotein [1] was > 99.5 µM; on Genome polyprotein [2], > 100 µM.
Regarding `COC1CN(C(=O)c2ccnc(NC(=O)c3cc(C4CC4)n(C)c3C)c2)C1`, the IC50 on Genome polyprotein [1] was > 99.5 µM; against Genome polyprotein [2], > 100 µM.
On the same counts, the results for `O=C(Nc1cc(-c2cccnc2)ccn1)c1coc(C2CC2)n1` are > 99.5 µM and > 100 µM.
On the same counts, the results for `O=C(O)c1cccc(CCc2cc(Cl)cc3[nH]ncc23)c1` are > 99.5 µM and > 100 µM.
As to `O=C(NC1CCOCC1)[C@H](Nc1ccc2c(c1)CNC2)c1cc(Cl)cc(C2CC2)c1`, the half-maximal inhibitory concentration (IC50) was > 99.5 µM and 37.7 µM and 56.5 µM against Genome polyprotein [1]; > 100 µM against Genome polyprotein [2].
Take `O=C(Nc1ccc2c(c1)CNC2)[C@H]1CCCc2[nH]ncc21`: the half-inhibitory concentration (IC50) at Genome polyprotein [1] is > 99.5 µM; against Genome polyprotein [2], > 100 µM.
Take `N[C@H]1Cc2ccc(NC(=O)c3cccc4c3CC(=O)N4)cc2C1`: the IC50 at Genome polyprotein [1] was 20.5 µM; against Genome polyprotein [2], 48.5 µM and 56.1 µM.
For the compound `O=C(Nc1ccc2c(c1)CNC2)c1cc(Cl)cc(C2CC2)c1`, the figures for the IC50 against Genome polyprotein [1] and against Genome polyprotein [2] were > 99.5 µM and > 100 µM, respectively.
On the same counts, the results for `Cc1ncc(-c2cc(F)cc(C(=O)Nc3ccc4c(c3)CNC4)c2)o1` are > 99.5 µM and > 100 µM.
For the compound `O=C(Nc1cnc2c(c1)CNC2)c1cc(F)cc2[nH]ncc12`, the IC50 on Genome polyprotein [1] is 36.5 µM; against Genome polyprotein [2], 46.6 µM and 49.7 µM.
On to `CC(=O)N(c1ccc2c(c1)CNC2)[C@]1(c2cc(Cl)cc(C3CC3)c2)CN(C)C1=O`, for which the values for the IC50 against Genome polyprotein [1] and against Genome polyprotein [2] were > 99.5 µM and > 100 µM, respectively.
In the same order, the values of `NCc1cccc(NC(=O)c2cc(C3CC3)n3nccc3n2)c1` are > 99.5 µM and > 100 µM.
In the same order, the values of `c1cncc(-c2cccc(NCc3c[nH]c4ccccc34)c2)c1` are > 99.5 µM and > 100 µM.
For `CCc1cccc(NC(=O)[C@]2(Oc3ccc(Br)cc3)CCNC3(CC3)C2)c1`, the figures for the IC50 against Genome polyprotein [1] and at Genome polyprotein [2] were > 99.5 µM and > 100 µM, respectively.
In the same order, the values of `CCCC(=O)Nc1cc(Cl)cc(C(=O)Nc2cccc(CN)c2)c1` are > 99.5 µM and > 100 µM.
On to `O=C(Nc1cc(Cl)cc(C(=O)Nc2cccc([C@H]3C[C@H]3C(=O)O)c2)c1)OCc1ccccc1`, for which the concentration for half-maximal inhibition (IC50) against Genome polyprotein [1] is 19.6 µM and 25.7 µM and 26.9 µM and 24.8 µM; against Genome polyprotein [2] it was 12.3 µM (3×) and 10.2 µM and 15.6 µM and 14.8 µM.
As to `O=C(Nc1cc(Cl)cc(C(=O)NC[C@H]2CNC3(CC3)CO2)c1)OCc1ccccc1`, the figures for the IC50 against Genome polyprotein [1] and against Genome polyprotein [2] were > 99.5 µM and > 100 µM, respectively.
On the same counts, the results for `O=C(Nc1cc2c(cc1C1CC1)CNC2)c1cc(F)cc2[nH]ncc12` are 70.9 µM and 62.5 µM.
In the same order, the values of `C=CC[C@H]1NCc2cc(N[C@H](C(=O)NC(C)C)c3cc(Cl)cc4[nH]ncc34)ccc21` are 63.9 µM and 56.9 µM.
As for `NCc1cccc(NC(=O)[C@@H](NC(=O)OCc2ccccc2)C2CCN(C3CCOCC3)CC2)c1`, the IC50 at Genome polyprotein [1] was > 99.5 µM; on Genome polyprotein [2], > 100 µM.
As for `O=C(Nc1cc(Cl)cc(C(=O)Nc2ccc3c(c2)C[C@H](O)C3)c1)OCc1ccccc1`, the concentration for half-maximal inhibition (IC50) is > 99.5 µM at Genome polyprotein [1] and > 100 µM at Genome polyprotein [2].
In the same order, the values of `NCCCc1ccnc(NC(=O)c2cc(C3CC3)[nH]n2)c1` are > 99.5 µM and > 100 µM.
In the same order, the values of `O=C1Cc2c(cccc2C(=O)Nc2ccc3c(c2)CNCCC3)N1` are > 99.5 µM and 90.1 µM.
Consider `CCNC(=O)c1ccc2nc(N3CC[C@H](CO)C3)c(=O)n(CC)c2c1`, for which the 50% inhibitory concentration (IC50) on Genome polyprotein [1] is 90.4 µM; at Genome polyprotein [2], > 100 µM.
In the same order, the values of `NCCCc1ccc(F)c(NC(=O)c2cc(Cl)cc(NC(=O)OCc3ccccc3)c2)c1` are 27.8 µM and 91.1 µM.
On the same counts, the results for `CCc1cc(C(=O)Nc2cccc(-c3nnn[nH]3)c2)ccc1Cl` are > 99.5 µM and 67.2 µM.
Consider `O=C(Nc1ccc2c(c1)CNC2)c1cccc2cn[nH]c12`, for which the half-maximal inhibitory concentration (IC50) against Genome polyprotein [1] is > 99.5 µM and 55.6 µM; at Genome polyprotein [2] it was > 100 µM.
On to `CC(C)NC(=O)[C@H](Nc1ccc2c(c1)CN(C)C2(C)C)c1cc(Cl)cc2[nH]ncc12`, for which the results for the IC50 against Genome polyprotein [1] and against Genome polyprotein [2] were 98.9 µM and 28.2 µM, respectively.
On the same counts, the results for `O=C1Cc2c(cccc2C(=O)Nc2ccc3c(c2)CNCC3)N1` are 76.4 µM and > 100 µM.
On the same counts, the results for `OCC#C[C@H](Nc1ccc(-c2nnn[nH]2)cc1)c1cc(Cl)cc(C2CC2)c1` are > 99.5 µM and 40.8 µM.
Regarding `CN(C(=O)c1cc(Cl)cc2[nH]ncc12)c1ccc2c(c1)CNC2`, the IC50 at Genome polyprotein [1] was > 99.5 µM; at Genome polyprotein [2] it was > 100 µM.
`NCc1ccc(CNC(=O)c2cc(Cl)cc(NC(=O)OCc3ccccc3)c2)c(F)c1`: the figures for the IC50 against Genome polyprotein [1] and at Genome polyprotein [2] were > 99.5 µM and > 100 µM, respectively.
In the same order, the values of `Cc1c(C(=O)Nc2cccc(-c3cccnc3)c2)cc(C2CC2)n1C` are > 99.5 µM and > 100 µM.
As to `O=C(Nc1ccc2c(c1)CNC2)c1cc(Cl)cc2[nH]ncc12`, the half-maximal inhibitory concentration (IC50) was 72.5 µM and 58.7 µM and 89.7 µM against Genome polyprotein [1]; > 100 µM against Genome polyprotein [2].
Consider `O=C(Nc1ccc2c(c1)S(=O)(=O)NC2)c1cc(Cl)cc2[nH]ncc12`, for which the IC50 against Genome polyprotein [1] was > 99.5 µM; on Genome polyprotein [2], > 100 µM.
On the same counts, the results for `Cc1ncc(NC(=O)OCc2ccccc2)cc1C(=O)Nc1cccc(CN)c1` are > 99.5 µM and > 100 µM.
On the same counts, the results for `O=C(Nc1cc(Cl)cc(C(=O)N2CCC(c3nn[nH]n3)CC2)c1)OCc1ccccc1` are > 99.5 µM and > 100 µM.
On the same counts, the results for `O=C1Cc2c(cccc2C(=O)Nc2cccc(-c3cn[nH]c3)c2)N1` are > 99.5 µM and > 100 µM.
Consider `O=C(NCCOCC1CC1)[C@H](Nc1ccc2c(c1)CNC2)c1cc(Cl)cc(C2CC2)c1`, for which the IC50 against Genome polyprotein [1] was > 99.5 µM; against Genome polyprotein [2] it was > 100 µM.
On the same counts, the results for `Cc1ncc(Br)cc1C(=O)Nc1ccc2c(c1)CNC2` are > 99.5 µM and > 100 µM.
`Cc1c(C(=O)Nc2cc(C(=O)N3CCOCC3)ccn2)cc(C2CC2)n1C`: the IC50 against Genome polyprotein [1] is > 99.5 µM; against Genome polyprotein [2], > 100 µM.
On the same counts, the results for `N[C@@H]1CC[C@H](CCNC(=O)c2cc(Cl)cc(NC(=O)OCc3ccccc3)c2)C1` are > 99.5 µM and > 100 µM.
On the same counts, the results for `Clc1ccc2[nH]cc(Cc3ccc4c(c3)CNC4)c2c1` are > 99.5 µM and > 100 µM.
As for `Clc1ccc2nc(C3CCOCC3)n(Cc3ccc4c(c3)CNC4)c2c1`, the concentration for half-maximal inhibition (IC50) against Genome polyprotein [1] was > 99.5 µM; against Genome polyprotein [2], > 100 µM.
In the case of `O=C(Nc1ccc2c(c1)CNC2)c1cc(F)cc(-c2ccc3c(=O)[nH]ncc3c2)c1`, the concentration for half-maximal inhibition (IC50) at Genome polyprotein [1] was 25 µM and 22.8 µM; against Genome polyprotein [2], 36 µM and 33.9 µM.
As to `O=C1Cc2c(cc(F)cc2C(=O)Nc2ccc3c(c2)CNC3)N1`, the IC50 is 32.8 µM against Genome polyprotein [1]; 30 µM and 25.6 µM and 21 µM on Genome polyprotein [2].
